Turning to `CCc1ccc(Nc2nc3cc(NC(=O)c4cc([N+](=O)[O-])ccc4Cl)ccc3o2)cc1`, the melting point was > 250 °C.

For the compound `CCCOc1ccccc1-c1nc2nc(NCC(=O)OCC)ncc2c(=O)[nH]1`, the melting point fell in the range of 174 to 176 °C. To `O=C(O)c1ccc2c(c1)Sc1ccccc1C=C2` belongs 251 to 254 °C; to `O=C1c2ccc([N+](=O)[O-])cc2C2(c3ccccc3)NCCN12` (centres undefined), 203 °C; to `CS(=O)(=O)c1nccc(-n2ncc3ccccc32)n1`, 177 to 181 °C. The result for `CNC(=O)N(O)CCNC(=O)c1cccc(Oc2ccc(Cl)cc2)c1` reads 157 to 158 °C; that for `Cc1ccc(-c2csc3nc(C)c(CCCl)c(=O)n23)cc1`, 152 to 165 °C; that for `Cn1ncc(C(=O)N2CCC2)c1C(=O)Nc1ccn2nc(N3CCOCC3)nc2c1`, 232 to 234 °C. To `N#Cc1ccnc(-c2nc(=O)c3ccccc3s2)c1` belongs 283 to 284 °C. In turn, `O=C(O)CCCc1cc2cc(C(F)(F)F)ccc2n1S(=O)(=O)c1ccc2c(c1)CCN2` returned a melting point of 175 °C. In the case of `COc1ccc(Cl)cc1C(=O)NCCc1ccc(-c2ccc(OC(C)(C)CO)cc2)cc1`, the melting point was found to be 115 °C. The compound `CC(C)(C)OC(=O)Nc1cc(C(F)(F)F)ccc1-c1cc(Oc2ccc3cccnc3c2)ncn1` had a melting point of 159 to 162 °C. To `Cc1ccc(S(=O)(=O)OCC2Cc3cccc(-c4ccc(C(F)(F)F)cc4)c3O2)cc1` (centres undefined) belongs 116 to 118 °C. To `CC(=O)Nc1ccc(-c2cc(C(=O)c3cccnc3)sc2N2CCOCC2)cc1` belongs 144 °C. The result for `CC(C)(Sc1nc2ccccc2cc1-c1ccccc1)C(=O)O` reads 144 to 146 °C; that for `CC(C)(C)OC(=O)N1CCN(CCCC2(C)Cn3cc([N+](=O)[O-])nc3O2)CC1` (centres undefined), 166 to 167 °C. Compound `NS(=O)(=O)c1cc2[nH]ccc2cc1F` came in with a melting point of 181 to 182 °C. The result for `O=C(CCC(=O)N1CCC[C@H]1C(=O)O)c1ccc(F)cc1` reads 127 to 129 °C; that for `CC(C)Cc1ccc(CCOC(=O)c2cc(O)c3c(c2)C(=O)c2cccc(O)c2C3=O)cc1`, 117 to 121 °C.

`CC(C)(C)c1ccc(Cn2c(=S)n(Cc3ccc(NS(C)(=O)=O)cc3)c3ccccc32)cc1` returned a melting point of 176 to 178 °C. The result for `CCc1ccc2c(c1)C(=O)N(CCCCN1CCC(n3c(=O)oc4ccccc43)CC1)S2(=O)=O` reads 165 to 168 °C.

On to `CCCSc1sc(C(=O)OCC)c2c1C(=O)C(NC(=O)CC)CC2` (centres undefined), for which the melting point fell in the range of 191 to 192 °C.

`COc1ccc(Nc2nc(NC3CCCCCC3)nc(Oc3ccc(C#CC(C)(C)O)cc3)n2)cc1Cl` returned a melting point of 132 to 134 °C. The result for `CC(C)n1c(-c2ccccc2)nc(-c2ccc(F)cc2)c1CO` reads 190 to 193 °C.

As for `CC(=O)c1cc2c(cc1O)CCCC2`, the melting point is 70 to 72 °C.

`CC(=O)c1cccnc1N(C)C1CCN(Cc2ccccc2)CC1` registered a melting point of 93 to 94 °C.

Take `C=Cn1cc(C(=O)O)c(=O)c2cc(F)c(N3CCC4CCC(C3)N4C)cc21` (centres undefined): the melting point fell in the range of 214 to 215 °C. In the case of `CCc1cc2nccc(-c3cccnc3)n2n1`, the melting point fell in the range of 103 to 104 °C. To `NC(C(=O)O)c1ccc(C(=O)O)cc1N1CCCC1` (centres undefined) belongs 187 to 190 °C; to `CC(C)(C)NCC(O)c1cc(Cl)c(N)c([N+](=O)[O-])c1` (centres undefined), 148 to 149 °C; to `Cc1c(C(=O)Nc2ccc(N3CCC(O)CC3)c(C#N)c2)c2cc(F)ccc2n1CC(=O)O`, > 250 °C. In turn, `Cn1cc(C(=O)NCc2ccc(Cl)cc2)c(=O)c2cc(CN3CCC(F)(F)CC3)ccc21` gave a melting point of 214 to 215 °C. `Cc1cc([N+](=O)[O-])ccc1N1CCOCC1` yielded a melting point of 147 to 150 °C.

For `CCOc1nn(Cc2cccc(OCCn3ncc4ccccc4c3=O)c2)cc1CCC(=O)O`, the melting point fell in the range of 146 to 147 °C.

On to `OCCC(O)OCn1cc(I)c2c(Cl)ncnc21` (centres undefined), for which the melting point fell in the range of 155 to 156 °C. The result for `O=[N+]([O-])c1ccc(C(O)C(CO)[N+](=O)[O-])cc1` (centres undefined) reads 105 to 107 °C; that for `CN(Cc1ccco1)Cn1c(Cl)c(C#N)c(-c2cccc(Cl)c2F)c1-c1ccccc1`, 63 to 64 °C. To `CC(=O)c1c(-c2ccccc2Cl)nc2occn12` belongs 121 to 122 °C. `CCOC(=O)c1cc(N=Cc2ccccc2)ccc1OC(C)=O` had a melting point of 79 to 80 °C. `CNC12CC(O)CCC1CCc1ccccc12` (centres undefined) gave a melting point of 141 to 143 °C. To `CC(=O)Oc1c(Cl)cc(Cl)cc1C1(OC(C)=O)C(=O)c2ccccc2C1=O` belongs 178 to 180 °C; to `COC(=O)C=C1NCC(c2ccccc2)OC1=O` (centres undefined), 125 to 126 °C; to `CNC(=O)CC1=CC2(CCCC2)c2ccc(Cl)cc21`, 190 °C.

With `CC(C)NC1=NS(=O)(=O)c2sc(Cl)cc2N1`, the melting point was in the range of 281 to 283 °C. As for `CC1(C)OCCC2C(C3(O)CCSCC3)C(=O)N21` (centres undefined), the melting point was 133 to 134 °C. The result for `CCCc1nn(CC)c2c(=O)[nH]c(C)nc12` reads 211 to 213 °C. To `Nc1cccc(NC(=O)NCCCOc2cccc(CN3CCCCC3)c2)c1` belongs 116 to 118 °C; to `Cc1ncsc1C(=O)Nc1ccc(-n2nc(C3CC3)cc2C2CC2)cc1`, 110 to 114 °C; to `CC1(C)CCC(C)(C)c2cc(Oc3ccc(C=C(O)C(=O)O)cc3)ccc21`, 207 to 210 °C. To `FC(F)(F)c1ccc2nc(N3CCN(c4c(Cl)cccc4Cl)CC3)[nH]c2c1` belongs 263 to 265 °C. `Cc1cc2nc3c4cc(N)ccc4n(CCN(C)C)c3nc2cc1C` displayed a melting point of 250 to 251 °C. The result for `CC1(c2ccccc2)CN(c2ccnc(NC(=O)NCc3ccccn3)c2)C(=O)O1` (centres undefined) reads 194 to 195 °C. To `CC(C)(CF)C(=O)C(Oc1cccc(F)n1)n1cncn1` (centres undefined) belongs 116 °C. The result for `Cc1cc(C#N)cc(C)c1C(=O)CBr` reads 76 °C; that for `COc1cccc(-c2cccc3c2OC(COS(=O)(=O)c2ccc(C)cc2)C3)c1` (centres undefined), 141 to 142 °C. `COc1cc(OCC(=O)N2CCOCC2)c(C=CC(=O)c2ccc(C(=O)O)cc2)cc1-c1cccs1` yielded a melting point of 231 to 233 °C.

Turning to `COc1ccc2[nH]c3c(c2c1)C1C(=O)NC(=O)C1C(C(=O)OCc1ccccc1)C3` (centres undefined), the melting point was 179 to 181 °C. The result for `CS(=O)(=O)c1cncc(-c2nc(=O)c3ccccc3s2)n1` reads 232 to 233 °C. To `CCC(=O)NC(C)(C)COc1cccc2nc(C)c(C(=O)O)c(N)c12` belongs 189 to 193 °C.

In the case of `COc1ccc(C2(c3ccc(N(C)C)cc3N(C)C)OC(=O)c3cc(N(C)C)ccc32)cc1` (centres undefined), the melting point fell in the range of 90 to 94 °C.

On to `N#CN=C(Nc1cnc(Cl)c(N)c1)Oc1ccccc1`, for which the melting point was 219 to 220 °C. To `CCc1cccc(C)c1NC(=O)C(C)Br` (centres undefined) belongs 181 to 182 °C; to `CC(C)(C)OC(=O)N[C@@H](C(=O)O)C1(C)CCCCC1`, 127 to 130 °C.

For the compound `N#Cc1cccc(C(=O)Nc2cccc(C(=O)NCCC(=O)OCc3ccccc3)c2)c1`, the melting point was in the range of 128 to 131 °C. The result for `O=C1CC[C@H](CC(c2ccc(S(=O)(=O)C3CC3)cc2)c2nc(F)c(C(=O)C3CCC3)[nH]2)C1` (some centres undefined) reads 85 to 88 °C. As for `O=C1COc2c(cc(Cl)cc2C(=O)NC2CCN(Cc3ccccc3)CC2)N1`, the melting point was 203 to 206 °C. In the case of `O=c1[nH]c2sc3ccc(Cl)cc3c2[nH]c1=O`, the melting point is > 340 °C. To `c1ccc2c(=Nc3ccncc3)cc3oc4cc(N5CCCCC5)ccc4nc-3c2c1` belongs 267 to 268 °C; to `NC(=O)NN=Cc1c(O)c(O)cc2ccccc12`, 210 to 215 °C.

With `O=C(O)c1ccc(Cc2cc3cc(Cl)ccc3n2S(=O)(=O)c2ccc3c(c2)OCCO3)s1`, the melting point was 196 °C.

In turn, `CCCCCCC(=O)NCC(=O)O` returned a melting point of 98 to 100 °C. To `Cn1c2ccc([N+](=O)[O-])cc2c2c3ccccc3c(=O)[nH]c21` belongs > 300 °C; to `CC(=O)OC1CSC(Oc2cccc(Cl)n2)C(OC(C)=O)C1OC(C)=O` (centres undefined), 127 °C; to `O=c1c2ccc(OCCN3CCCCC3)cc2oc2cc(OCCN3CCCCC3)ccc12`, 134 °C.

Take `CCCCN1CC(=O)N2[C@@H](c3ccc(NS(C)(=O)=O)cc3)c3[nH]c4ccccc4c3C[C@@H]2C1=O` (relative stereo): the melting point came out at 188 °C.

`CCCOc1ccccc1-c1ccc(C(=O)OC)c(=O)[nH]1` displayed a melting point of 126 to 128 °C. Consider `CN1C(=O)CC[C@H]1COc1cccnc1`, for which the melting point fell in the range of 73 to 74 °C. The result for `c1ccc(-c2nc3ccccn3c2-c2ccnc(-c3ccc(N4CCOCC4)cc3)c2)nc1` reads 145 °C; that for `COC(=O)/C=C/C=C(\C)c1ccc(OC)cc1`, 84 to 86 °C. To `CC(C)(C)C(=O)Nc1ccc(C(F)(F)F)cc1` belongs 154 to 158 °C; to `Cc1cc2c(cc1Cl)C(CC(=O)O)(c1ccccc1OC(C)C)C(=O)N2` (centres undefined), 148 to 150 °C.

For the compound `CCOC(=O)C1=CC(C)(C(=O)N(C)C)SC1N` (centres undefined), the melting point lay within 122 to 124 °C.

In the case of `COc1ccc(C2=C(c3ccc(S(C)(=O)=O)cc3)CCC2)cc1Cl`, the melting point lay in the range of 118 to 120 °C. Take `CCCc1c(OCCCCCOc2cc(OCCCC(=O)O)ccc2CCC(=O)O)ccc2c1OCCC2=O`: the melting point was in the range of 163 to 164 °C.

For the compound `O=C1N=c2ccc(C3(c4nc5ccc(-c6ccccc6)cc5[nH]4)N=c4ccccc4=N3)cc2=NC1=O`, the melting point was > 280 °C. To `CN(CC#CI)c1nc(CO)cs1` belongs 118 to 119 °C; to `O=C(O)CS(=O)CCCCCNS(=O)(=O)c1ccc(Cl)cc1` (centres undefined), 91 to 92 °C. To `COc1ccccc1CNc1ccc2cc(Nc3ncco3)ccc2n1` belongs 205 °C; to `COc1nn(C(=S)Oc2ccccc2)c(=O)n1N`, 158 °C.

Broadly, the melting point is the temperature, or range, at which the solid turns liquid.
